Experimental data as given in patent publication US7592160B2, “Processes for producing isomaltose and isomaltitol and use thereof” (Kabushiki Kaisha Hayashibara Seibutsu Kagaku Kenkyujo, priority 2001, dated 2009).

Experiments:
[1] = test system: α-isomaltosylglucosaccharide-forming enzyme; test: Action on saccharides as substrates (TLC), enzyme of C9 strain; type: biochemical, Bacillus globisporus C9 strain; set-up: key: −: it showed no change; +: it showed a slight reduction of the color spot of the substrate and the formation of other reaction product; ++: it showed a high reduction of the color spot of the substrate and the formation of other reaction product; +++: it showed a substantial disappearance of the substrate spot and the formation of other reaction product; conditions: two units/g substrate, substrate 2% (w/v), 30° C., pH 6.0, 24 hours
From the text: (§1) To examine the saccharides in the supernatant, they were separated by developing twice on silica gel thin-layer chromatography (abbreviated as “TLC” hereinafter) using, as a developer, a mixture solution of n-butanol, pyridine, and water (=6:4:1 by volume), and, as a thin-layer plate, “[…]™ 60”, an aluminum plate (20×20 cm) for TLC commercialized by Merck & Co., Inc., Rahway, USA. The coloration of the separated total sugars by the sulfuric acid-methanol method and that of the reducing saccharides by the diphenylamine-aniline method detected a non-reducing saccharide positive at an Rf value of about 0.31 on the former detection method but negative on the latter detection method.
(§2) It was tested whether any saccharides can be used as substrates for α-isomaltosylglucosaccharide-forming enzyme. For the purpose, a solution of maltose, maltotriose, maltotetraose, maltopentaose, maltohexaose, maltoheptaose, isomaltose, isomaltotriose, panose, isopanose, α,α-trehalose, kojibiose, nigerose, neotrehalose, cellobiose, gentibiose, maltitol, maltotriitol, lactose, sucrose, erlose, selaginose, maltosyl glucoside, or isomaltosyl glucoside was prepared.
(§3) To each of the above solutions was added two units/g substrate of a purified specimen of α-isomaltosylglucosaccharide-forming enzyme from either Bacillus globisporus C9 strain obtained by the method in Experiment 4-2, Bacillus globisporus C11 strain obtained by the method in Experiment 7-2, Bacillus globisporus N75 strain obtained by the method in Experiment 11-2, or Arthrobacter globiformis A19 strain obtained by the method in Experiment 15-2, and the resulting each solution was adjusted to give a substrate concentration of 2% (w/v) and incubated at 30° C. and pH 6.0 for 24 hours, except for using pH 8.4 for the enzyme from Arthrobacter globiformis A19 strain. The enzyme solutions before and after the enzymatic reactions were respectively analyzed on TLC disclosed in Experiment 1 to confirm whether the enzymes acted on these substrates.

[2] = test system: α-isomaltosylglucosaccharide-forming enzyme; test: Action on saccharides as substrates (TLC), enzyme of C11 strain; type: biochemical, Bacillus globisporus C11 strain; set-up: key: −: it showed no change; +: it showed a slight reduction of the color spot of the substrate and the formation of other reaction product; ++: it showed a high reduction of the color spot of the substrate and the formation of other reaction product; +++: it showed a substantial disappearance of the substrate spot and the formation of other reaction product; conditions: two units/g substrate, substrate 2% (w/v), 30° C., pH 6.0, 24 hours
From the text: as §1, §2, §3

[3] = test system: α-isomaltosylglucosaccharide-forming enzyme; test: Action on saccharides as substrates (TLC), enzyme of N75 strain; type: biochemical, Bacillus globisporus N75 strain; set-up: key: −: it showed no change; +: it showed a slight reduction of the color spot of the substrate and the formation of other reaction product; ++: it showed a high reduction of the color spot of the substrate and the formation of other reaction product; +++: it showed a substantial disappearance of the substrate spot and the formation of other reaction product; conditions: two units/g substrate, substrate 2% (w/v), 30° C., pH 6.0, 24 hours
From the text: as §1, §2, §3

[4] = test system: α-isomaltosylglucosaccharide-forming enzyme; test: Action on saccharides as substrates (TLC), enzyme of A19 strain; type: biochemical, Arthrobacter globiformis A19 strain; set-up: key: −: it showed no change; +: it showed a slight reduction of the color spot of the substrate and the formation of other reaction product; ++: it showed a high reduction of the color spot of the substrate and the formation of other reaction product; +++: it showed a substantial disappearance of the substrate spot and the formation of other reaction product; conditions: two units/g substrate, substrate 2% (w/v), 30° C., pH 8.4, 24 hours
From the text: as §1, §2, §3

[5] = test system: α-isomaltosylglucosaccharide-forming enzyme; test: Transfer-acceptor specificity, enzyme of C9 strain; type: biochemical, Bacillus globisporus C9 strain; conditions: acceptor 1.6%, PINE-DEX #100 donor 4%, one unit/g donor, 30° C., pH 6.0, 24 hours
Method: (§4) Using various saccharides, it was tested whether the saccharides were used as transferring-acceptors for α-isomaltosylglucosaccharide-forming enzyme. A solution of D-glucose, D-xylose, L-xylose, D-galactose, D-fructose, D-mannose, D-arabinose, D-fucose, D-psicose, L-sorbose, L-rhamnose, methyl-α-glucopyranoside, methyl-β-glucopyranoside, N-acetyl-glucosamine, sorbitol, α,α-trehalose, isomaltose, isomaltotriose, cellobiose, gentibiose, glycerol, maltitol, lactose, sucrose, α-cyclodextrin, β-cyclodextrin, γ-cyclodextrin, or L-ascorbic acid was prepared. To each solution with a saccharide concentration of 1.6% was added “PINE-DEX #100”, a partial starch hydrolyzate, as a saccharide donor, to give a concentration of 4%, and admixed with one unit/g saccharide donor, d.s.b., of either of purified specimens of α-isomaltosylglucosaccharide-forming enzyme from Bacillus globisporus C9 strain obtained by the method in Experiment 4-2, Bacillus globisporus C11 strain obtained by the method in Experiment 7-2, Bacillus globisporus N75 strain obtained by the method in Experiment 11-2, or Arthrobacter globiformis A19 strain obtained by the method in Experiment 15-2, and incubated at 30° C. and pH 6.0 for 24 hours, except that pH 8.4 was used for the enzyme from Arthrobacter globiformis A19 strain. The reaction mixtures of the post-enzymatic reactions were analyzed on gas chromatography (abbreviated as “GLC” hereinafter) for monosaccharides and disaccharides as acceptors, and on HPLC for trisaccharides as acceptors to confirm whether these saccharides could be used as the transfer acceptors of the above enzymes. In the case of performing GLC, the following apparatuses and conditions were used: GLC apparatus, “GC-16A” commercialized by Shimadzu Corporation, Tokyo, Japan; column, a stainless-steel column, 3 mm in diameter and 2 m in length, packed with 2% “SILICONE OV-17/CHROMOSOLV W”, commercialized by GL Sciences Inc., Tokyo, Japan; carrier gas, nitrogen gas at a flow rate of 40 ml/min under temperature conditions of increasing from 160° C. to 320° C. at an increasing temperature rate of 7.5° C./min; and detection, a hydrogen flame ionization detector. In the case of performing HPLC analysis, the following apparatuses and conditions were used: HPLC apparatus, “CCPD” commercialized by Tosoh Corporation, Tokyo, Japan; column, “ODS-AQ-303” commercialized by YMC Co., Ltd., Tokyo, Japan; eluent, water at a flow rate of 0.5 ml/min; and detection, a differential refractometer.

[6] = test system: α-isomaltosylglucosaccharide-forming enzyme; test: Transfer-acceptor specificity, enzyme of C11 strain; type: biochemical, Bacillus globisporus C11 strain; conditions: acceptor 1.6%, PINE-DEX #100 donor 4%, one unit/g donor, 30° C., pH 6.0, 24 hours
Method: as §4

[7] = test system: α-isomaltosylglucosaccharide-forming enzyme; test: Transfer-acceptor specificity, enzyme of N75 strain; type: biochemical, Bacillus globisporus N75 strain; conditions: acceptor 1.6%, PINE-DEX #100 donor 4%, one unit/g donor, 30° C., pH 6.0, 24 hours
Method: as §4

[8] = test system: α-isomaltosylglucosaccharide-forming enzyme; test: Transfer-acceptor specificity, enzyme of A19 strain; type: biochemical, Arthrobacter globiformis A19 strain; conditions: acceptor 1.6%, PINE-DEX #100 donor 4%, one unit/g donor, 30° C., pH 8.4, 24 hours
Method: as §4

| Compound | Enzymatic action, Enzyme of C9 strain [1] | Enzymatic action, Enzyme of C11 strain [2] | Enzymatic action, Enzyme of N75 strain [3] | Enzymatic action, Enzyme of A19 strain [4] | Product of transferring reaction, Enzyme of C9 strain [5] | Product of transferring reaction, Enzyme of C11 strain [6] | Product of transferring reaction, Enzyme of N75 strain [7] | Product of transferring reaction, Enzyme of A19 strain [8] |
| --- | --- | --- | --- | --- | --- | --- | --- | --- |
| OC[C@H]1O[C@@H](O[C@H]2[C@H](O)[C@@H](O)C(O)O[C@@H]2CO)[C@H](O)[C@@H](O)[C@H]1O (stereo partly shown) [Lactose, lactose] | − | − | − | − | ++ (a saccharide-transferred product was detected in an amount over ten percent through transfer reaction to acceptor) | ++ (a saccharide-transferred product was detected in an amount over ten percent through transfer reaction to acceptor) | ++ (a saccharide-transferred product was detected in an amount over ten percent through transfer reaction to acceptor) | ++ (a saccharide-transferred product was detected in an amount over ten percent through transfer reaction to acceptor) |
| O=C[C@H](O)[C@@H](O)[C@H](O[C@@H]1O[C@H](CO)[C@@H](O)[C@H](O)[C@H]1O)[C@H](O)CO [Cellobiose, cellobiose] | − | − | − | − | ++ (a saccharide-transferred product was detected in an amount over ten percent through transfer reaction to acceptor) | ++ (a saccharide-transferred product was detected in an amount over ten percent through transfer reaction to acceptor) | ++ (a saccharide-transferred product was detected in an amount over ten percent through transfer reaction to acceptor) | ++ (a saccharide-transferred product was detected in an amount over ten percent through transfer reaction to acceptor) |
| OC[C@H]1O[C@H](OC[C@H]2O[C@H](OC[C@H]3OC(O)[C@H](O)[C@@H](O)[C@@H]3O)[C@H](O)[C@@H](O)[C@@H]2O)[C@H](O)[C@@H](O)[C@@H]1O (stereo partly shown) [Isomaltotriose, isomaltotriose] | − | − | − | − | ++ (a saccharide-transferred product was detected in an amount over ten percent through transfer reaction to acceptor) | ++ (a saccharide-transferred product was detected in an amount over ten percent through transfer reaction to acceptor) | ++ (a saccharide-transferred product was detected in an amount over ten percent through transfer reaction to acceptor) | ± (a saccharide-transferred product was detected in an amount less than one percent through transfer reaction to acceptor) |
| OC[C@H]1O[C@H](OC[C@H]2OC(O)[C@H](O)[C@@H](O)[C@@H]2O)[C@H](O)[C@@H](O)[C@@H]1O (stereo partly shown) [Isomaltose, isomaltose] | − | − | − | − | ++ (a saccharide-transferred product was detected in an amount over ten percent through transfer reaction to acceptor) | ++ (a saccharide-transferred product was detected in an amount over ten percent through transfer reaction to acceptor) | ++ (a saccharide-transferred product was detected in an amount over ten percent through transfer reaction to acceptor) | + (a saccharide-transferred product was detected in an amount over one percent but less than 10% through transfer reaction to acceptor) |
| OC[C@H]1O[C@@](CO)(O[C@H]2O[C@H](CO)[C@@H](O)[C@H](O)[C@H]2O)[C@@H](O)[C@@H]1O [Sucrose, sucrose] | − | − | − | − | ++ (a saccharide-transferred product was detected in an amount over ten percent through transfer reaction to acceptor) | ++ (a saccharide-transferred product was detected in an amount over ten percent through transfer reaction to acceptor) | ++ (a saccharide-transferred product was detected in an amount over ten percent through transfer reaction to acceptor) | ++ (a saccharide-transferred product was detected in an amount over ten percent through transfer reaction to acceptor) |
